# Test results: patent US20150299188A1, “HETEROCYCLIC COMPOUND” (priority 2012, published 2015)
# Test system: FLAP (5-lipoxygenase activating protein)
# Assay: In vitro binding test: displacement of [3H]-7-chloro-3-(5-((3-fluoropyridin-2-yl)methoxy)-2-methylphenyl)-3,4-dihydroquinazolin-2(1H)-one from Sf9 microsome fractions
# Design: species or system human and mouse
# Settings: Sf9 microsome fractions expressing FLAP; 100% = radioligand binding with 10 μM sodium 3-(3-(tert-butylsulfanyl)-1-(4-chlorobenzyl)-5-isopropyl-1H-indol-2-yl)-2,2-dimethylpropanoate, 0% = DMSO; test compound concentration not given
# Protocol: As an assay buffer, 100 mM Tris-HCl, pH 7.5, 140 mM NaCl, 2 mM EDTA, 0.5 mM dithiothreitol, 5% glycerol, 0.05% Tween20 was used. Sf9 microsome fractions expressing human and mouse FLAPs were dispensed by 50 μL to a 96-well plate at 2 μg/mL. Furthermore, a test compound (25 μL) diluted 4-fold of the final concentration with the assay buffer was added and mixed therewith, and the mixture was incubated at room temperature for 10 min. Furthermore, 120 nM [^3H]-7-chloro-3-(5-((3-fluoropyridin-2-yl)methoxy)-2-methylphenyl)-3,4-dihydroquinazolin-2(1H)-one was added by 25 μL, and mixed therewith, and the mixture was incubated at room temperature for 60 min. Thereafter, the cells were transferred to a 96-well GF/B Unifilter plate with a FilterMate cell harvester, and washed 3 times with a wash buffer (100 mM Tris-HCl pH 7.5, 0.05% Tween20, 200 μL) cooled to 4° C. The GF/B Unifilter plate was dried at 37° C., Microscint 0 was added and measured by TopCount NXT (PerkinElmer). As for the inhibitory activity, the inhibitory rate was calculated wherein the [^3H]-7-chloro-3-(5-((3-fluoropyridin-2-yl)methoxy)-2-methylphenyl)-3,4-dihydroquinazolin-2(1H)-one binding amount in the presence of 10 μM sodium 3-(3-(tert-butylsulfanyl)-1-(4-chlorobenzyl)-5-isopropyl-1H-indol-2-yl)-2,2-dimethylpropanoate was 100%, and the [^3H]-7-chloro-3-(5-((3-fluoropyridin-2-yl)methoxy)-2-methylphenyl)-3,4-dihydroquinazolin-2(1H)-one binding amount in the presence of DMSO was 0%.
row,inhibitory rate (%),Compound
1,105,"Cc1cc2c(cc1N1Cc3c(ccnc3Cl)NC1=O)OC(c1ccccn1)CC2 (stereo not shown) [Example 51, 5-chloro-3-(6-methyl-2-(pyridin-2-yl)-3,4-dihydro-2H-chromen-7-yl)-3,4-dihydropyrido[4,3-d]pyrimidin-2(1H)-one]"
2,100,"COc1nccc2c1CN(c1cc(OCc3ncccc3F)ccc1C)C(=O)N2 [Example 307, 3-(5-((3-fluoropyridin-2-yl)methoxy)-2-methylphenyl)-5-methoxy-3,4-dihydropyrido[4,3-d]pyrimidin-2(1H)-one]"
3,108,"O=C1CCCN1c1cc2c(c(C3CC3)n1)CN(c1cc3c(cc1Cl)CCC(c1ncccc1F)O3)C(=O)N2 (stereo not shown) [Example 86, 3-(6-chloro-2-(3-fluoropyridin-2-yl)-3,4-dihydro-2H-chromen-7-yl)-5-cyclopropyl-7-(2-oxopyrrolidin-1-yl)-3,4-dihydropyrido[4,3-d]pyrimidin-2(1H)-one]"
4,105,"O=C(NC1CC1)c1cc2c(c(C3CC3)n1)CN(c1cc3c(cc1Cl)CCC(c1ncccc1F)O3)C(=O)N2 (stereo not shown) [Example 76, 3-(6-chloro-2-(3-fluoropyridin-2-yl)-3,4-dihydro-2H-chromen-7-yl)-N,5-dicyclopropyl-2-oxo-1,2,3,4-tetrahydropyrido[4,3-d]pyrimidine-7-carboxamide]"
5,115,"O=C1Nc2c(ccnc2Cl)CN1c1cc2c(cc1Cl)CCC(c1ncccc1F)O2 (stereo not shown) [Example 54, 8-chloro-3-(6-chloro-2-(3-fluoropyridin-2-yl)-3,4-dihydro-2H-chromen-7-yl)-3,4-dihydropyrido[3,4-d]pyrimidin-2(1H)-one]"
6,109,"COC(=O)c1ccc2c(c1)NC(=O)N(c1cc(OCc3nccc(Cl)c3F)ccc1C)C2 [Example 246, methyl 3-(5-((4-chloro-3-fluoropyridin-2-yl)methoxy)-2-methylphenyl)-2-oxo-1,2,3,4-tetrahydroquinazoline-7-carboxylate]"
7,83,"Cc1ccc(OCc2ncccc2F)cc1N1Cc2cnccc2NC1=O [Example 268, 3-(5-((3-fluoropyridin-2-yl)methoxy)-2-methylphenyl)-3,4-dihydropyrido[4,3-d]pyrimidin-2(1H)-one]"
8,65,"Cc1ccc(OCc2c(F)cccc2F)cc1N1Cc2nn(C)cc2NC1=O [Example 236, 6-(5-((2,6-difluorobenzyl)oxy)-2-methylphenyl)-2-methyl-2,4,6,7-tetrahydro-5H-pyrazolo[4,3-d]pyrimidin-5-one]"
9,106,"CC(C)(O)c1nccc2c1CN(c1cc3c(cc1Cl)CCC(c1ncccc1F)O3)C(=O)N2 (stereo not shown) [Example 84, 3-(6-chloro-2-(3-fluoropyridin-2-yl)-3,4-dihydro-2H-chromen-7-yl)-5-(2-hydroxypropan-2-yl)-3,4-dihydropyrido[4,3-d]pyrimidin-2(1H)-one]"
10,104,"O=C1Nc2cc(Br)ccc2CN1c1cc(OCc2ncccc2F)ccc1C(F)(F)F [Example 301, 7-bromo-3-(5-((3-fluoropyridin-2-yl)methoxy)-2-(trifluoromethyl)phenyl)-3,4-dihydroquinazolin-2(1H)-one]"
11,102,"O=C1Nc2ccnc(Cl)c2CN1c1cc2c(cc1Cl)CC[C@@H](c1ncccc1F)O2 [Example 2, 5-chloro-3-((2S)-6-chloro-2-(3-fluoropyridin-2-yl)-3,4-dihydro-2H-chromen-7-yl)-3,4-dihydropyrido[4,3-d]pyrimidin-2(1H)-one]"
12,101,"Cc1ccc(OCc2ncccc2F)cc1N1Cc2ccc(C(F)(F)F)cc2NC1=O [Example 275, 3-(5-((3-fluoropyridin-2-yl)methoxy)-2-methylphenyl)-7-(trifluoromethyl)-3,4-dihydroquinazolin-2(1H)-one]"
13,81,"Cc1ccc(OCc2c(F)cccc2F)cc1N1Cc2ccc(CN)cc2NC1=O [Example 206, 7-(aminomethyl)-3-(5-((2,6-difluorobenzyl)oxy)-2-methylphenyl)-3,4-dihydroquinazolin-2(1H)-one]"
14,54,"O=C1Nc2cc(CO)ccc2CN1c1cc(OCc2c(F)cccc2F)ccc1Cc1ccccn1 [Example 317, 3-(5-((2,6-difluorobenzyl)oxy)-2-(pyridin-2-ylmethyl)phenyl)-7-(hydroxymethyl)-3,4-dihydroquinazolin-2(1H)-one]"
15,106,"COc1cc2c(c(C3CC3)n1)CN(c1cc3c(cc1C)CCC(c1ncccc1F)O3)C(=O)N2 (stereo not shown) [Example 122, 5-cyclopropyl-3-(2-(3-fluoropyridin-2-yl)-6-methyl-3,4-dihydro-2H-chromen-7-yl)-7-methoxy-3,4-dihydropyrido[4,3-d]pyrimidin-2(1H)-one]"
16,90,"COC(=O)c1ccc2c(c1)NC(=O)N(c1cc(OCc3nc(C)cs3)ccc1C)C2 [Example 249, methyl 3-(2-methyl-5-((4-methyl-1,3-thiazol-2-yl)methoxy)phenyl)-2-oxo-1,2,3,4-tetrahydroquinazoline-7-carboxylate]"
17,101,"Cc1ccc(OCc2ncccc2F)cc1-n1c(=O)[nH]c2cc(NC(=O)C3CC3)ccc2c1=O [Example 350, N-(3-(5-((3-fluoropyridin-2-yl)methoxy)-2-methylphenyl)-2,4-dioxo-1,2,3,4-tetrahydroquinazolin-7-yl)cyclopropanecarboxamide]"
18,90,"Cc1ccc(OCc2ncccc2F)cc1-n1c(=O)[nH]c2cccnc2c1=O [Example 338, 3-(5-((3-fluoropyridin-2-yl)methoxy)-2-methylphenyl)pyrido[3,2-d]pyrimidine-2,4(1H,3H)-dione]"
19,91,"Cc1cc2c(cc1N1Cc3c(F)cnc(C4CC4)c3NC1=O)OC(c1ncccc1F)CC2 (stereo not shown) [Example 168, 8-cyclopropyl-5-fluoro-3-(2-(3-fluoropyridin-2-yl)-6-methyl-3,4-dihydro-2H-chromen-7-yl)-3,4-dihydropyrido[3,4-d]pyrimidin-2(1H)-one]"
20,106,"COCCN1C(=O)N(c2cc3c(cc2Cl)CCC(c2ncccc2F)O3)Cc2c1ccnc2Cl (stereo not shown) [Example 55, 5-chloro-3-(6-chloro-2-(3-fluoropyridin-2-yl)-3,4-dihydro-2H-chromen-7-yl)-1-(2-methoxyethyl)-3,4-dihydropyrido[4,3-d]pyrimidin-2(1H)-one]"
21,99,"Cc1cc2c(cc1N1Cc3c(Cl)cnc(-c4c(C)noc4C)c3NC1=O)OC(c1ncccc1F)CC2 (single isomer, unassigned; (+)) [Example 12, (+)-5-chloro-8-(3,5-dimethyl-1,2-oxazol-4-yl)-3-(2-(3-fluoropyridin-2-yl)-6-methyl-3,4-dihydro-2H-chromen-7-yl)-3,4-dihydropyrido[3,4-d]pyrimidin-2(1H)-one]"
22,104,"COc1ncc(C(F)(F)F)c2c1NC(=O)N(c1cc3c(cc1Cl)CCC(c1ncccc1F)O3)C2 (stereo not shown) [Example 108, 3-(6-chloro-2-(3-fluoropyridin-2-yl)-3,4-dihydro-2H-chromen-7-yl)-8-methoxy-5-(trifluoromethyl)-3,4-dihydropyrido[3,4-d]pyrimidin-2(1H)-one]"
23,91,"Cc1cc2c(cc1N1Cc3c(cc(C4CC4)nc3-c3ccnn3C)NC1=O)OC(c1ncccc1F)CC2 (stereo not shown) [Example 104, 7-cyclopropyl-3-(2-(3-fluoropyridin-2-yl)-6-methyl-3,4-dihydro-2H-chromen-7-yl)-5-(1-methyl-1H-pyrazol-5-yl)-3,4-dihydropyrido[4,3-d]pyrimidin-2(1H)-one]"
24,97,"Cc1ccc(OCc2c(F)cccc2F)cc1N1Cc2c(CO)cccc2NC1=O [Example 195, 3-(5-((2,6-difluorobenzyl)oxy)-2-methylphenyl)-5-(hydroxymethyl)-3,4-dihydroquinazolin-2(1H)-one]"
25,107,"COc1ncc(Cl)c2c1NC(=O)N(c1cc3c(cc1Cl)CCC(c1ncccc1F)O3)C2 (stereo not shown) [Example 80, 5-chloro-3-(6-chloro-2-(3-fluoropyridin-2-yl)-3,4-dihydro-2H-chromen-7-yl)-8-methoxy-3,4-dihydropyrido[3,4-d]pyrimidin-2(1H)-one]"
26,91,"O=C1Nc2cc(-c3nsc(=O)[nH]3)nc(C3CC3)c2CN1c1cc2c(cc1Cl)CCC(c1ncccc1F)O2 (stereo not shown) [Example 134, 3-(6-chloro-2-(3-fluoropyridin-2-yl)-3,4-dihydro-2H-chromen-7-yl)-5-cyclopropyl-7-(5-oxo-4,5-dihydro-1,2,4-thiadiazol-3-yl)-3,4-dihydropyrido[4,3-d]pyrimidin-2(1H)-one]"
27,100,"COC(=O)c1ccc2c(c1)NC(=O)N(c1cc(OCc3ccc(F)cc3F)ccc1C)C2 [Example 200, methyl 3-(5-((2,4-difluorobenzyl)oxy)-2-methylphenyl)-2-oxo-1,2,3,4-tetrahydroquinazoline-7-carboxylate]"
28,101,"Cc1ccc(OCc2ncccc2F)cc1N1Cc2nn(CC3CC3)cc2NC1=O [Example 276, 2-(cyclopropylmethyl)-6-(5-((3-fluoropyridin-2-yl)methoxy)-2-methylphenyl)-2,4,6,7-tetrahydro-5H-pyrazolo[4,3-d]pyrimidin-5-one]"
